Assay results as given in ChEMBL document CHEMBL5506062, “Discovery and Optimization of N-Arylated Tetracyclic Dicarboximides That Target Primary Glioma Stem-like Cells” (J Med Chem, 2024).

Key:
Type in all cases: ADME, organism-based
[1] = Cmax in female CD-1 mouse plasma at 10 mg/kg, ip measured after 10 to 1440 mins by LC-MS/MS analysis
[2] = Tmax in female CD-1 mouse plasma at 10 mg/kg, ip measured after 10 to 1440 mins by LC-MS/MS analysis
[3] = AUClast in female CD-1 mouse plasma at 10 mg/kg, ip measured after 10 to 1440 mins by LC-MS/MS analysis
[4] = Cmax in female CD-1 mouse brain at 10 mg/kg, ip measured after 10 to 1440 mins by LC-MS/MS analysis
[5] = Tmax in female CD-1 mouse brain at 10 mg/kg, ip measured after 10 to 1440 mins by LC-MS/MS analysis
[6] = AUClast in female CD-1 mouse brain at 10 mg/kg, ip measured after 10 to 1440 mins by LC-MS/MS analysis; settings: in vivo
[7] = Ratio of drug concentration in brain to plasma in female CD-1 mouse at 10 mg/kg, ip measured after 10 to 1440 mins by LC-MS/MS analysis; settings: brain and plasma, read-out: K(p,uu,brain)
[8] = Cmax in female CD-1 mouse plasma at 5 mg/kg, iv measured after 0 to 1440 mins by LC-MS/MS analysis
[9] = Tmax in female CD-1 mouse plasma at 5 mg/kg, iv measured after 0 to 1440 mins by LC-MS/MS analysis
[10] = AUClast in female CD-1 mouse plasma at 5 mg/kg, iv measured after 0 to 1440 mins by LC-MS/MS analysis
[11] = Cmax in female CD-1 mouse brain at 5 mg/kg, iv measured after 0 to 1440 mins by LC-MS/MS analysis
[12] = Tmax in female CD-1 mouse brain at 5 mg/kg, iv measured after 0 to 1440 mins by LC-MS/MS analysis
[13] = AUClast in female CD-1 mouse brain at 5 mg/kg, iv measured after 0 to 1440 mins by LC-MS/MS analysis; settings: in vivo
[14] = Cmax in female CD-1 mouse plasma at 20 mg/kg, po measured after 0 to 1440 mins by LC-MS/MS analysis
[15] = Tmax in female CD-1 mouse plasma at 20 mg/kg, po measured after 0 to 1440 mins by LC-MS/MS analysis
[16] = AUClast in female CD-1 mouse plasma at 20 mg/kg, po measured after 0 to 1440 mins by LC-MS/MS analysis
[17] = Cmax in female CD-1 mouse brain at 20 mg/kg, po measured after 0 to 1440 mins by LC-MS/MS analysis
[18] = Tmax in female CD-1 mouse brain at 20 mg/kg, po measured after 0 to 1440 mins by LC-MS/MS analysis
[19] = AUClast in female CD-1 mouse brain at 20 mg/kg, po measured after 0 to 1440 mins by LC-MS/MS analysis; settings: in vivo
[20] = Oral bioavailability in female CD-1 mouse plasma at 20 mg/kg measured after 0 to 1440 mins by LC-MS/MS analysis
[21] = Oral bioavailability in female CD-1 mouse brain at 20 mg/kg measured after 0 to 1440 mins by LC-MS/MS analysis
[22] = Cmax in female CD-1 mouse brain at 20 mg/kg, po measured at 90 mins by LC-MS/MS analysis
[23] = Drug concentration in female CD-1 mouse plasma at 20 mg/kg, po measured at 30 mins by LC-MS/MS analysis
[24] = Drug concentration in female CD-1 mouse brain at 20 mg/kg, po measured at 30 mins by LC-MS/MS analysis; settings: read-out: Ct
[25] = Drug concentration in female CD-1 mouse liver at 20 mg/kg, po measured at 30 mins by LC-MS/MS analysis; settings: read-out: Ct

| Cmax [1] [ng/mL] | Tmax [2] [min] | AUC(0-t) [3] [ng·h/mL] | Cmax [4] [ng/g] | Tmax [5] [min] | AUClast [6] [ng·min/g] | Kp uu [7] | SMILES | also measured |
| --- | --- | --- | --- | --- | --- | --- | --- | --- |
| 1970 | 30 | 7340 | 1110 | 30 | 220405 | 0.5 | COc1ccc(C(=O)C2CC2c2ccc(N3C(=O)[C@@H]4[C@@H]5C=C[C@@H]([C@H]6C[C@@H]56)[C@@H]4C3=O)c(F)c2)cc1Cl (stereo partly specified) |  |
| 3440 | 10 | 4780 | 978 | 30 | 83823 | 0.29 | O=C(COc1cnc(N2C(=O)[C@@H]3[C@@H]4C=C[C@@H]([C@H]5C[C@@H]45)[C@@H]3C2=O)nc1)c1ccc(Cl)c(Cl)c1 |  |
| 887 | 10 | 4350 | 992 | 30 | 294638 | 1.13 | COc1ccc(C(=O)C2CC2c2ccc(N3C(=O)[C@@H]4[C@@H]5C=C[C@@H]([C@H]6C[C@@H]56)[C@@H]4C3=O)cc2)cc1 (stereo partly specified) |  |
| 1300 | 30 | 4830 | 2530 | 90 | 720503 | 2.49 | O=C(COc1ccc(N2C(=O)[C@@H]3[C@@H]4C=C[C@@H]([C@H]5C[C@@H]45)[C@@H]3C2=O)cc1)c1cc(Cl)cc(Cl)c1 | Cmax [8]: 12000 ng/mL; Tmax [9]: 5 min; AUC(0-t) [10]: 14800 ng·h/mL; Cmax [11]: 3260 ng/g; Tmax [12]: 5 min; AUClast [13]: 767638 ng·min/g; Cmax [14]: 3400 ng/mL; Tmax [15]: 30 min; AUC(0-t) [16]: 23100 ng·h/mL; Cmax [17]: 2380 ng/g; Tmax [18]: 90 min; AUClast [19]: 1774789 ng·min/g; bioavailability [20]: 39%; bioavailability [21]: 58%; Cmax at […] [22]: 2380 ng/g; concentration at 0.5 h [23]: 1430 ng/mL; concentration at 0.5 h [24]: 1160 ng/g; concentration at 0.5 h [25]: 11500 ng/g |
